# Test results as given in ChEMBL document CHEMBL4152208, “Synthesis and structure-activity relationships of quinolinone and quinoline-based P2X7 receptor antagonists and their anti-sphere formation activities in glioblastoma cells” (Eur J Med Chem, 2018).
# The source made the active and inactive calls. The calls are words filed in the database; no cut-off is given here.
# Legend:
# P2X purinoceptor 1 [1] = target: T1, P2X purinoceptor 1 (Rattus norvegicus, UniProt P47824); assay: Antagonist activity at P2X1 receptor in rat vas deferens assessed as inhibition of alphabeta me-ATP-induced response
# T1 sequence (P47824 whole entry): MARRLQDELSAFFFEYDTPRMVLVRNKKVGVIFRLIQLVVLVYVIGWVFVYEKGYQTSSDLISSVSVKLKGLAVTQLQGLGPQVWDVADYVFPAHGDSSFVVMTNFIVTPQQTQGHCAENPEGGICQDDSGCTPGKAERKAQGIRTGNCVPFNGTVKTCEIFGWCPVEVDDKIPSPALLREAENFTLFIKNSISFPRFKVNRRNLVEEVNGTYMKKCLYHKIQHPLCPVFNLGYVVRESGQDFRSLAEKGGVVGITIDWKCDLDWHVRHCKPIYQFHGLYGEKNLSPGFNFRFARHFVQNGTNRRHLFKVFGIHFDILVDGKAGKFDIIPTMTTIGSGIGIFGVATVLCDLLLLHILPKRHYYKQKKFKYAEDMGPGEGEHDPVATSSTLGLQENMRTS
# P2X purinoceptor 1 [2] = target: P2X purinoceptor 1 (Rattus norvegicus, UniProt P47824); assay: Antagonist activity at wild type His6 tagged rat P2X1 receptor expressed in Xenopus laevis oocytes assessed as inhibition of alphabeta-me ATP-induced calcium flux at -60 mV holding potential by two electrode voltage clamp method; format: cell-based
# [3] = target: T2, P2X purinoceptor 7 (Homo sapiens) (UniProt Q99572); assay: Antagonist activity at human P2X7 receptor expressed in HEK293 cells assessed as inhibition of BzATP-induced EtBr uptake at 10 uM after 2 hrs by fluorescence assay relative to control; format: cell-based
# T2 sequence (whole entry): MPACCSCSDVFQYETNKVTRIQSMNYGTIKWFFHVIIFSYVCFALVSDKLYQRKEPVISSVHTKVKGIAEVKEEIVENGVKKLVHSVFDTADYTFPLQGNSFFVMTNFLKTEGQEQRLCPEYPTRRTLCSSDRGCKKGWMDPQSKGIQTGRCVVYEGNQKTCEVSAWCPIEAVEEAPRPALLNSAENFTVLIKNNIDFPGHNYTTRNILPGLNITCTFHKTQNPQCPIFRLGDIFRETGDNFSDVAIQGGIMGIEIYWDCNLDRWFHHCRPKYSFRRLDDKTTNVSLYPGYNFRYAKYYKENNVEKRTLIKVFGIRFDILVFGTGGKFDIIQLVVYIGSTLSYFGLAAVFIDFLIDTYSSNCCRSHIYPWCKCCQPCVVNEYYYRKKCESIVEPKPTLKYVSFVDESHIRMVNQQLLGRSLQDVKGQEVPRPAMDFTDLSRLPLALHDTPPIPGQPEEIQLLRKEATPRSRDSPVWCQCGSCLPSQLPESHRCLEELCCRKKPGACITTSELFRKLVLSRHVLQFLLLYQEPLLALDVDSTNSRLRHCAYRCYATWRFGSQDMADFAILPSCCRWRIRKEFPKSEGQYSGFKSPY
# [4] = target: T2, P2X purinoceptor 7 (Homo sapiens); assay: Antagonist activity at human P2X7 receptor expressed in HEK293 cells assessed as inhibition of BzATP-induced EtBr uptake at 1 uM after 2 hrs by fluorescence assay relative to control; format: cell-based
# P2X purinoceptor 7 [5] = target: T3, P2X purinoceptor 7 (Homo sapiens, UniProt Q99572); assay: Antagonist activity at human P2X7 receptor expressed in HEK293 cells assessed as inhibition of BzATP-induced EtBr uptake after 2 hrs by fluorescence assay relative to control; format: cell-based
# T3 sequence (Q99572 whole entry): T2 sequence (whole entry)
# P2X purinoceptor 7 [6] = target: T3, P2X purinoceptor 7; assay: Antagonist activity at P2X7 in LPS/IFN gamma differentiated human THP-1 cells assessed as inhibition of BzATP-induced IL-1beta release preincubated for 30 mins followed by BzATP stimulation for 30 mins by ELISA; format: cell-based
# Homo sapiens [7] = species: Homo sapiens; assay: Antiproliferative activity against human TS15-88 cells at 50 uM after 24 hrs by MTS assay; format: functional, cell-based
# Homo sapiens [8] = species: Homo sapiens; assay: Inhibition of neurosphere formation in human TS15-88 cells assessed as decrease in sphere size at 50 uM after 5 days by microscopic analysis relative to control; format: functional
# [9] = Cytotoxicity against HEK293 cells expressing human P2X7 receptor assessed as cell survival at 10 uM by MTT assay relative to control; format: cell-based; details: read-out: Survival
# [10] = Effective permeability of the compound at 50 uM after 4 hrs by BBB-PAMPA method; format: ADME; details: read-out: Peff
# [11] = Kinetic solubility of the compound in PAMPA buffer at 50 uM by nepheolometry method; format: physicochemical
# [12] = Kinetic solubility of the compound in PAMPA buffer at 25 uM by nepheolometry method; format: physicochemical
# [13] = Kinetic solubility of the compound in PAMPA buffer at 12.5 uM by nepheolometry method; format: physicochemical
# [14] = Metabolic stability in human liver microsomes assessed as parent compound remaining at 1 uM up to 30 mins in presence of NADPH by LC-MS/MS analysis; format: ADME, microsome; details: read-out: Stability
# [15] = Metabolic stability in rat liver microsomes assessed as parent compound remaining at 1 uM up to 30 mins in presence of NADPH by LC-MS/MS analysis; format: ADME, microsome; details: read-out: Stability
# [16] = Metabolic stability in mouse liver microsomes assessed as parent compound remaining at 1 uM up to 30 mins in presence of NADPH by LC-MS/MS analysis; format: ADME, microsome; details: read-out: Stability
# P2X purinoceptor 3 = target: T4, P2X purinoceptor 3 (Rattus norvegicus, UniProt P49654); assay: Antagonist activity at P2X3 receptor in rat DRG neurons at -70 mV holding potential by whole cell patch clamp method
# T4 sequence (P49654 whole entry): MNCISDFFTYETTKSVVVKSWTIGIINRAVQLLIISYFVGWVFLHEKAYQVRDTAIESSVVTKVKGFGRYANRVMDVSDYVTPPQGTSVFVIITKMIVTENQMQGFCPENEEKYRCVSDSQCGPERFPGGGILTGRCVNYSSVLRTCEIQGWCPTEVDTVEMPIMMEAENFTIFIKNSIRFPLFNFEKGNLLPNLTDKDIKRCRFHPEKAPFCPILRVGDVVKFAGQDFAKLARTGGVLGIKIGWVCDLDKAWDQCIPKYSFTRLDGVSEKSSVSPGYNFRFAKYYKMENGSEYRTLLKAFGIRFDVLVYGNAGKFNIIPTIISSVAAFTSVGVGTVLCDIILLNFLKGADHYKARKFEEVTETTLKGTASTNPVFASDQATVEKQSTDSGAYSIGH
compound,measurement,setting,value
Nc1c(S(=O)(=O)O)cc(Nc2ccc(S(=O)(=O)O)c(Nc3nc(Cl)nc(Cl)n3)c2)c2c1C(=O)c1ccccc1C2=O,IC50,P2X purinoceptor 1 [1],4700 nM
same,IC50,P2X purinoceptor 1 [2],570 nM
O=C(CC12CC3CC(CC(C3)C1)C2)Nc1cccc2nc(-c3ccc(C(=O)O)cc3)ccc12,inhibition,[3],93%
same,inhibition,[4],87%
same,IC50,P2X purinoceptor 7 [5],8 nM
same,IC50,P2X purinoceptor 7 [6],25 nM
same,Activity,Homo sapiens [7],inactive
same,inhibition,Homo sapiens [8],inactive
same,viability at 10 µM,[9],94%
same,"Papp at 4 h, 50 µM",[10],8.44 to 8.46 ×10⁻⁶ cm/s
same,Kinetic_solubility,[11],Soluble
same,Kinetic_solubility,[12],Soluble
same,Kinetic_solubility,[13],Soluble
same,"remaining at 0.5 h, 1 µM",[14],40.5%
same,"remaining at 0.5 h, 1 µM",[15],10.9%
same,"remaining at 0.5 h, 1 µM",[16],8.1%
O=C(Nc1cc(C(=O)Nc2ccc(S(=O)(=O)O)cc2)cc(C(=O)Nc2ccc(S(=O)(=O)O)cc2)c1)Nc1cc(C(=O)Nc2ccc(S(=O)(=O)O)cc2)cc(C(=O)Nc2ccc(S(=O)(=O)O)cc2)c1,IC50,P2X purinoceptor 3,500 nM
